Data taken from ChEMBL document CHEMBL4706557, “Synthesis and in vitro and in vivo biological evaluation of novel derivatives of flexicaulin A as antiproliferative agents” (Eur J Med Chem, 2020).
Active and inactive are the calls of the source. The rule behind the calls is not given here.

How the values were obtained:
ECa-109 cell line [1] = experiment: Induction of apoptosis in human EC-109 cells xenografted in nude BALB/c mouse assessed as appearance of morphological changes at 20 to 40 mg/kg, ip administered once daily for 14 days by H and E staining based histopathological analysis; format: functional, organism-based; conditions: dose 20-40 mg/kg, time 14.0 day
ECa-109 cell line [2] = experiment: Induction of apoptosis in human EC109 cells assessed as increase in intracellular ROS level at 1.5 to 3 uM incubated for 24 hrs by DCFH-DA staining based flow cytometry analysis; format: functional, cell-based; conditions: dose 1.5-3 µM
ECa-109 cell line [3] = experiment: Induction of apoptosis in human EC-109 cells xenografted in nude BALB/c mouse assessed as nuclear shrinkage at 20 to 40 mg/kg, ip administered once daily for 14 days by H and E staining based histopathological analysis; format: functional, organism-based; conditions: dose 20-40 mg/kg, time 14.0 day
[4] = Toxicity in BALB/c mouse assessed as PLT at 40 mg/kg, ip administered once daily for 14 days (reference value: 788.60 +/- 71.35 10^9/L); format: organism-based; conditions: in vivo, 336 h, time 14 day
ECa-109 cell line [5] = experiment: Induction of apoptosis in human EC-109 cells xenografted in BALB/c mouse assessed as increase in cleaved caspase 9 in tumor tissue at 40 mg/kg, ip QD for 14 days by Western blotting analysis relative to control; format: functional, organism-based; conditions: time 14.0 day
ECa-109 cell line [6] = experiment: Induction of apoptosis in human EC109 cells assessed as change in Bax expression at 0.75 to 3 uM after 24 hrs by Western blot analysis; format: functional, cell-based; conditions: dose 0.75-3 µM
[7] = Toxicity in nude BALB/c mouse xenografted with human EC109 cells assessed as change in body weight at 20 to 40 mg/kg, ip administered every day for 14 days; format: organism-based; conditions: in vivo, 336 h, dose 20-40 mg/kg, time 14 day
ECa-109 cell line [8] = experiment: Induction of apoptosis in human EC109 cells assessed as increase in cleaved caspase 9 expression at 3 uM incubated for 24 hrs in presence of N-acetylcysteine by Western blot analysis; format: functional, cell-based
[9] = Toxicity in BALB/c mouse assessed as PLT at 20 mg/kg, ip administered once daily for 14 days (reference value: 788.60 +/- 71.35 10^9/L); format: organism-based; conditions: in vivo, 336 h, time 14 day
ECa-109 cell line [10] = experiment: Induction of apoptosis in human EC-109 cells assessed as apoptotic rate at 3 uM preincubated with N-acetylcysteine for 4 hrs followed by compound addition and measured after 48 hrs by Annexin V-FITC/propidium iodide staining based flow cytometry (reference value: 3.8 %); format: functional
[11] = Toxicity in BALB/c mouse assessed as HCT at 20 mg/kg, ip administered once daily for 14 days (reference value: 49.08 +/- 1.56 %); format: organism-based; conditions: in vivo, 336 h, time 14 day
[12] = Toxicity in BALB/c mouse assessed as abnormalities in lungs at 20 to 40 mg/kg, ip administered once daily for 14 days by HE staining based assay; format: organism-based; conditions: in vivo, 336 h, dose 20-40 mg/kg, time 14 day
ECa-109 cell line [13] = experiment: Induction of mitochondrial depolarization in human EC-109 cells assessed as depolarized cell population at 0.75 uM measured after 24 hrs by JC1 dye based flow cytometry (reference value: 4.2 %); format: functional
ECa-109 cell line [14] = experiment: Induction of apoptosis in human EC-109 cells assessed as apoptotic rate at 3 uM preincubated with N-acetylcysteine for 4 hrs followed by compound addition and measured after 24 hrs by Annexin V-FITC/propidium iodide staining based flow cytometry (reference value: 5.7 %); format: functional
ECa-109 cell line [15] = experiment: Antiproliferative activity against human EC109 cells assessed as survival rate preincubated with N-acetylcysteine for 4 hrs followed by compound addition and measured after 24 hrs by SRB assay; format: functional
ECa-109 cell line [16] = experiment: Induction of mitochondrial depolarization in human EC-109 cells assessed as depolarized cell population at 3 uM preincubated with N-acetylcysteine for 4 hrs followed by compound addition and measured after 24 hrs by JC1 dye based flow cytometry (reference value: 4.2 %); format: functional
MCF7 = experiment: Antiproliferative activity against human MCF7 cells assessed as inhibition of cell growth incubated for 72 hrs by SRB assay; format: functional, cell-based; conditions: MCF7, 72 h
ECa-109 cell line [17] = experiment: Induction of apoptosis in human EC-109 cells xenografted in BALB/c mouse assessed as change in Bax expression in tumor tissue at 40 mg/kg, ip QD for 14 days by Western blotting analysis relative to control; format: functional, organism-based; conditions: time 14.0 day
ECa-109 cell line [18] = experiment: Induction of apoptosis in human EC109 cells assessed as reduction in Bcl-2 protein expression incubated for 24 hrs by Western blot analysis; format: functional, cell-based
GES1 = experiment: Cytotoxicity against human GES1 cells assessed as inhibition of cell growth incubated for 72 hrs by SRB assay; format: cell-based; conditions: GES1, 72 h
ECa-109 cell line [19] = experiment: Induction of apoptosis in human EC-109 cells xenografted in BALB/c mouse assessed as increase in phosphorylated MKK4 in tumor tissue at 20 to 40 mg/kg, ip QD for 14 days by Western blotting analysis; format: functional, organism-based; conditions: dose 20-40 mg/kg, time 14.0 day
TE-1 = experiment: Antiproliferative activity against human TE-1 cells assessed as inhibition of cell growth incubated for 72 hrs by SRB assay; format: functional, cell-based; conditions: TE-1, 72 h
[20] = Toxicity in BALB/c mouse assessed as effect on WBC level at 20 mg/kg, ip administered once daily for 14 days (reference value: 4.42 +/- 0.79 10^9/L); format: organism-based; conditions: in vivo, 336 h, time 14 day
[21] = Toxicity in BALB/c mouse assessed as effect on WBC level at 40 mg/kg, ip administered once daily for 14 days (reference value: 4.42 +/- 0.79 10^9/L); format: organism-based; conditions: in vivo, 336 h, time 14 day

- IC50 (MCF7): 350 nM
SMILES: C=C1C(=O)[C@@]23[C@H](O)C[C@@H]4C(C)(C)CCC[C@@]4(COC(C)=O)[C@@H]2[C@@H](O)C[C@H]1[C@H]3OC(=O)c1ccc(CCl)cc1
- Activity (ECa-109 cell line [1]): Active
- Activity (ECa-109 cell line [2]): Active
- Activity (ECa-109 cell line [3]): Active
- Activity [4]: 832.8 10^9/L
- Activity (ECa-109 cell line [5]): Active
- Activity (ECa-109 cell line [6]): inactive
- Activity [7]: Non-Toxic
- Activity (ECa-109 cell line [8]): inactive
- Activity [9]: 754.8 10^9/L
- Activity (ECa-109 cell line [10]): 4.8%
- Activity [11]: 46.67%
- Activity [12]: Non-Toxic
- Activity (ECa-109 cell line [13]): 26.3%
- Activity (ECa-109 cell line [14]): 5.6%
- Activity (ECa-109 cell line [15]): 90%
- Activity (ECa-109 cell line [16]): 4%
- Activity (ECa-109 cell line [17]): Active
- Activity (ECa-109 cell line [18]): Dose-dependent effect
- IC50 (GES1): 520 nM
- Activity (ECa-109 cell line [19]): Active
- IC50 (TE-1): 270 nM
- Activity [20]: 5.02 10^9/L
- Activity [21]: 4.21 10^9/L
